From US12371428B2 (Exelixis, Inc., priority 2019, dated 2025) come the findings set out here.

pIC50: −log10 of the molar value.

Common to all, as to format: cell-based
Assay [1] deals with Met (phospho-Met, HGF-stimulated PC-3 prostate cancer cells) (Homo sapiens (Human), UniProt P08581). In words: Met autophosphorylation ELISA in PC-3 cells (Example F). Particulars: cellular activity; Met autophosphorylation ELISA in PC-3 cells; read-out: c-Met IC50. In outline:
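Sandwich ELISA for phospho-Met (panTyr) in PC-3 lysates. Cells starved 3 h serum-free, compound 1 h (8-pt curve, 0.3% DMSO), HGF 100 ng/mL 10 min. 100% = HGF + DMSO; 0% = HGF + reference inhibitor. IC50 by 4-parameter fit.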

The target in assay [2] is Mer (phospho-Mer, MERTK-transfected 293A cells) (Homo sapiens (Human), UniProt Q12866). In words: Mer autophosphorylation ELISA in transient transfected 293A cells (Example H). Particulars: cellular activity; Mer autophosphorylation ELISA in transient transfected 293A cells. The method in brief: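 293A cells transiently transfected with human MERTK were treated 1 h in serum-free medium with an 8-point compound dilution (0.3% DMSO final). Lysates were assayed by phospho-Mer sandwich ELISA against a phospho-Mer standard; IC50 came from a 4-parameter logistic fit, normalised to DMSO (100%) and reference-inhibitor (0%) controls.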

Assay [3] has as its target AXL (phospho-AXL, Gas6-stimulated A-172 glioblastoma cells) (Homo sapiens (Human), UniProt P30530). In words: AXL autophosphorylation ELISA in A-172 cells (Example E). The following applies: cellular activity; AXL autophosphorylation ELISA in A-172 cells; read-out: Axl IC50. In outline:
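Phospho-AXL in lysates was quantified by ELISA, normalised to DMSO (100%) and reference inhibitor (0%) controls. IC50 by 4-parameter logistic fit.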

Assay [4] deals with KDR (phospho-KDR, VEGF165-stimulated HUVEC cells) (Homo sapiens (Human), UniProt P35968). The assay can be described thus: KDR autophosphorylation ELISA in HUVEC cells (Example G). The following applies: cellular activity; KDR autophosphorylation ELISA in HUVEC cells. The method in brief: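 IC50 values derive from nonlinear curve fitting of phospho-KDR levels measured by ELISA and interpolated from a phosphoprotein standard. Beforehand, starved HUVECs received compound (0.3% DMSO vehicle) for one hour and were activated with VEGF165 at 100 ng/mL for 5 min.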
KDR (phospho-KDR, VEGF165-stimulated HUVEC cells), sequence (P35968 20-1356): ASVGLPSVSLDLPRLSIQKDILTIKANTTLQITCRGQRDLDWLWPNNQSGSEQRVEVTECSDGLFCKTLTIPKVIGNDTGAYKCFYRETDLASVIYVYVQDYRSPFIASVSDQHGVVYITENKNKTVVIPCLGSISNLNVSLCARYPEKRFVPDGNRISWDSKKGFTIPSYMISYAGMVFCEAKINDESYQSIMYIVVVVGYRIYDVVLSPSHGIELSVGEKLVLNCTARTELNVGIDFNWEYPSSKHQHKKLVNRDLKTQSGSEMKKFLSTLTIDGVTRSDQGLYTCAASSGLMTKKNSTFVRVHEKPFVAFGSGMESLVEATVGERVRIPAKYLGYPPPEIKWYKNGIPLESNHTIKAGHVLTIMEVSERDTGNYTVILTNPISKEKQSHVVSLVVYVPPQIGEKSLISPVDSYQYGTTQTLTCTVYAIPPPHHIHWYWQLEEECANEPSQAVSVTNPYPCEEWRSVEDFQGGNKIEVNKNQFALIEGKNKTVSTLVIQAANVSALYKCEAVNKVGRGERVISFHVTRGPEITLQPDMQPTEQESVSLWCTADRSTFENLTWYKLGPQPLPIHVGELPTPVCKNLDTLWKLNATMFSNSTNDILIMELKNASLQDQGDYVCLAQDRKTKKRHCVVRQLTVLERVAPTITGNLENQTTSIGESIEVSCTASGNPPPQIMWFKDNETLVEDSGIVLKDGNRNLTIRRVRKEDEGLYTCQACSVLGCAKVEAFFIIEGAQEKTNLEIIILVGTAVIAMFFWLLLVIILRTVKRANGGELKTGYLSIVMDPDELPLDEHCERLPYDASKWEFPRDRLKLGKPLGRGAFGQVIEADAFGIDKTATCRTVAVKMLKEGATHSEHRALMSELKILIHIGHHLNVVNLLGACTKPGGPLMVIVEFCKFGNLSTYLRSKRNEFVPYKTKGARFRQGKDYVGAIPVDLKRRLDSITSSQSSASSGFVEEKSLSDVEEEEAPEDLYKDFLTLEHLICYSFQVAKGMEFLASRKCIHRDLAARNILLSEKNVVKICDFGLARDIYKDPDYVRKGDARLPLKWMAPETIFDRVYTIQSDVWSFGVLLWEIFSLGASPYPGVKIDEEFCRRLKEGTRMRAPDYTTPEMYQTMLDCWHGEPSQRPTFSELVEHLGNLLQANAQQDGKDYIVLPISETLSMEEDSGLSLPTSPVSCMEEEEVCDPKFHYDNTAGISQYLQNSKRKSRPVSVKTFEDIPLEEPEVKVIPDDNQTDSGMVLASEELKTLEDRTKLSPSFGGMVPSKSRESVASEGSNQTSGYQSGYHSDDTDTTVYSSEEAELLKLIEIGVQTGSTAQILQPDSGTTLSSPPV

AXL (phospho-AXL, Gas6-stimulated A-172 glioblastoma cells), sequence (P30530 26-894): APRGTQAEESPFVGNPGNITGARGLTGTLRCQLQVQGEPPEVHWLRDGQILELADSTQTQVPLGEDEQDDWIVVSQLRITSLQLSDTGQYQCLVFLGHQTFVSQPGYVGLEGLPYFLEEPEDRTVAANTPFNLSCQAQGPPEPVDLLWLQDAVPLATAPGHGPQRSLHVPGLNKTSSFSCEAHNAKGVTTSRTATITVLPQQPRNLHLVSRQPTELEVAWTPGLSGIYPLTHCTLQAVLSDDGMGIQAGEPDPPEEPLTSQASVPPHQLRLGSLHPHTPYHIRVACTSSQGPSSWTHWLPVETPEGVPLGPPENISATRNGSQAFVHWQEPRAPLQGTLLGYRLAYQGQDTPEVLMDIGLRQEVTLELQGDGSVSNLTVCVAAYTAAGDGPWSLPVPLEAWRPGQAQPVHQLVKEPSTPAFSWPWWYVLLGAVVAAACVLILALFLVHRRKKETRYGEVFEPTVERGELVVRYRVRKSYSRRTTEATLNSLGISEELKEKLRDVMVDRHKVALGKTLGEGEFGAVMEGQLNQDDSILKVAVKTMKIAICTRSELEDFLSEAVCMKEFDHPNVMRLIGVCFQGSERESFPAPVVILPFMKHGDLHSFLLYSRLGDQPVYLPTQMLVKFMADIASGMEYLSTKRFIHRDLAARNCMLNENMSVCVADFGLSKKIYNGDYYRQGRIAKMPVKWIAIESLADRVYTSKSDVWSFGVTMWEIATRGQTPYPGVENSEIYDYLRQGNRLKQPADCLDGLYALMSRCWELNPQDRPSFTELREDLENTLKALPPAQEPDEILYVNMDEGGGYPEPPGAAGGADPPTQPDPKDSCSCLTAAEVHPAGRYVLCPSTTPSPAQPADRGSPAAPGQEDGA
Mer (phospho-Mer, MERTK-transfected 293A cells), sequence (Q12866 21-999): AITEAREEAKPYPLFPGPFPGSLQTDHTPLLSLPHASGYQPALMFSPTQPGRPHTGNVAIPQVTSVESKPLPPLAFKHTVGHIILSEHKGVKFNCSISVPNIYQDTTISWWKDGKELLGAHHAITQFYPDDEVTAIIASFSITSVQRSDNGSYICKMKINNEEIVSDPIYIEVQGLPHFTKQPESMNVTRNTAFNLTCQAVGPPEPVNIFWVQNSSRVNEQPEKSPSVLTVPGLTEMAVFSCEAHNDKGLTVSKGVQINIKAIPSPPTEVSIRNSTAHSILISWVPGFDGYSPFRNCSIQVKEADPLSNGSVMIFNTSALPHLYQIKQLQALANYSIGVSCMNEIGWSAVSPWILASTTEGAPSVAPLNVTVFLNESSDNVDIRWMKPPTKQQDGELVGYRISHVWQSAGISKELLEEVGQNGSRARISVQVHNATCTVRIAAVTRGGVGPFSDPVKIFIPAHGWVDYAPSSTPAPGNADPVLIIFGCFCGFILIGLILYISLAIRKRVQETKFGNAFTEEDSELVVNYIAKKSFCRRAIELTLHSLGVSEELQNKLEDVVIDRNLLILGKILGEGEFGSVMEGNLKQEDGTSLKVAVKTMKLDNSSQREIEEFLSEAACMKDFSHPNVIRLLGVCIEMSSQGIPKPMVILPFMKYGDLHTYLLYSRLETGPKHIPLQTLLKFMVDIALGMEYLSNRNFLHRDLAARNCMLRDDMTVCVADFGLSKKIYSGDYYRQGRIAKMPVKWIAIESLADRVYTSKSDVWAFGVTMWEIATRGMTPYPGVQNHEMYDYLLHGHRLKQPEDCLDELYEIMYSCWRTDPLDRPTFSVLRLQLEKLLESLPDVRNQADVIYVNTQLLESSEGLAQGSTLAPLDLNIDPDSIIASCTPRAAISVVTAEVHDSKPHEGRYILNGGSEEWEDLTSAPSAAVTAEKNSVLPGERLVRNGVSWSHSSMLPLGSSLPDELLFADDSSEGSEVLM
Met (phospho-Met, HGF-stimulated PC-3 prostate cancer cells), sequence (P08581 25-1390): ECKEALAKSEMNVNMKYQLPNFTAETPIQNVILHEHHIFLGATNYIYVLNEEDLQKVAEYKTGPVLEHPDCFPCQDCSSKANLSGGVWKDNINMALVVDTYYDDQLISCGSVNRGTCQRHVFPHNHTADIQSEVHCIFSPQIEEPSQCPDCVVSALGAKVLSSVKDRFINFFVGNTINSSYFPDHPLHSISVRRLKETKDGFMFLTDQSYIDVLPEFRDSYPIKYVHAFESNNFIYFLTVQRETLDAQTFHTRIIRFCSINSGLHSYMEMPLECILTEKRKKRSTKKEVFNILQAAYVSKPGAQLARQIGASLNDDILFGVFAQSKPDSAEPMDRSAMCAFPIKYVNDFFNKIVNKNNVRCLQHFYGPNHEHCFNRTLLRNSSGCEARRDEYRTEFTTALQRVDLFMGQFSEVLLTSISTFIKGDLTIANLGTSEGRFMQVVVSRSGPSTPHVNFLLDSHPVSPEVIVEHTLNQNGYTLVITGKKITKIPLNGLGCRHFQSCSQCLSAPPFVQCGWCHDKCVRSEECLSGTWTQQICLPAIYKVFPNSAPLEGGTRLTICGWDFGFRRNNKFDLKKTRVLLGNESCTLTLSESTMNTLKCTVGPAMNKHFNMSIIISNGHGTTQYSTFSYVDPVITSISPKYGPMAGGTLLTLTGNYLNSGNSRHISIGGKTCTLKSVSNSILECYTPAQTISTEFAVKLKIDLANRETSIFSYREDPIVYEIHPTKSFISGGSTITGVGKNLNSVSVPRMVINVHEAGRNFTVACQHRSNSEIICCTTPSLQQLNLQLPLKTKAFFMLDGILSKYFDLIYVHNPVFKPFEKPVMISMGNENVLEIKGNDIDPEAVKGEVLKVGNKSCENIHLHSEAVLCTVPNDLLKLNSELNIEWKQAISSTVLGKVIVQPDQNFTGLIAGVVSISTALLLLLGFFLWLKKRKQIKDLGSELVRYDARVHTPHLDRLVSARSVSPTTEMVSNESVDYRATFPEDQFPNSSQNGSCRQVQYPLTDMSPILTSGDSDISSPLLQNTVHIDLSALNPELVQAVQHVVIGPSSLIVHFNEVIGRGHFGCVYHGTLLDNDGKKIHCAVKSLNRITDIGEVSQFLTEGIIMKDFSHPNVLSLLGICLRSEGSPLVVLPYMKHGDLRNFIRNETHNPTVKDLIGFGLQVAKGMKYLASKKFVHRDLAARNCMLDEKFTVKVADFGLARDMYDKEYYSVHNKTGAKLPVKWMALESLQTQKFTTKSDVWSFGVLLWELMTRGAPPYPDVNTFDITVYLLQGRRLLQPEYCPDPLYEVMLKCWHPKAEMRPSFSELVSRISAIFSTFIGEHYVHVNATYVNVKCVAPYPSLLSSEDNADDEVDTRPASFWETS

With `COc1cc2nccc(Oc3ccc(NC(=O)c4nn(C(C)C)c(C)c(-c5ccc(F)cc5)c4=O)cc3F)c2cc1OC` [Compound 575, N-[4-(6,7-Dimethoxyquinolin-4-yl)oxy-3-fluorophenyl]-5-(4-fluorophenyl)-6-methyl-4-oxo-1-propan-2-ylpyridazine-3-carboxamide], the pIC50 in assay [1], in assay [2], in assay [3] and in assay [4] was > 7.00 in each case.
`COc1cc2nccc(Oc3ccc(NC(=O)c4cc(-c5ccc(F)cc5)c(C)nn4)cc3F)c2nc1OC` [Compound 601, N-[4-[(6,7-Dimethoxy-1,5-naphthyridin-4-yl)oxy]-3-fluorophenyl]-5-(4-fluorophenyl)-6-methylpyridazine-3-carboxamide]: the negative-log IC50 (pIC50) in assay [1] is < 6.52; in assay [2] it was > 7.00; in assay [3], < 6.52; in assay [4], < 6.52.
In the case of `COc1cc2ncnc(Oc3ccc(NC(=O)c4ccc(C)n(-c5ccc(F)cc5)c4=O)cc3F)c2nc1OC` [Compound 635], the pIC50 in assay [1], in assay [2], in assay [3] and in assay [4] was > 7.00 each time.
As to `COCCOc1cc2ncnc(Oc3ccc(NC(=O)c4ccc(C)n(-c5ccc(F)cc5)c4=O)cc3F)c2nc1OC` [Compound 638, N-[3-fluoro-4-[6-methoxy-7-(2-methoxyethoxy)pyrido[3,2-d]pyrimidin-4-yl]oxyphenyl]-1-(4-fluorophenyl)-6-methyl-2-oxopyridine-3-carboxamide], the pIC50 in assay [1], in assay [2], in assay [3] and in assay [4] was > 7.00 throughout.
Turning to `COc1cc2nccc(Oc3ccc(NC(=O)c4c[nH]c(=S)n(-c5ccc(F)cc5)c4=O)cc3F)c2cc1OC` [Compound 646, N-[4-(6,7-dimethoxyquinolin-4-yl)oxy-3-fluorophenyl]-3-(4-fluorophenyl)-4-oxo-2-sulfanylidene-1H-pyrimidine-5-carboxamide], the pIC50 in assay [1], in assay [2], in assay [3] and in assay [4] was > 7.00 each time.
In the case of `COc1cc2nccc(Oc3ccc(NC(=O)c4c(Cl)n(C)c(C)c(-c5ccc(F)cc5)c4=O)cc3F)c2nc1OC` [Compound 647, 2-chloro-N-[4-[(6,7-dimethoxy-1,5-naphthyridin-4-yl)oxy]-3-fluorophenyl]-5-(4-fluorophenyl)-1,6-dimethyl-4-oxopyridine-3-carboxamide], the pIC50 was > 7.00 in assay [1], > 7.00 in assay [2], > 7.00 in assay [3] and < 6.52 in assay [4].
For the compound `COc1cc2nccc(Oc3ccc(NC(=O)c4c(OC)n(C)c(C)c(-c5ccc(F)cc5)c4=O)cc3F)c2nc1OC` [Compound 648, N-[4-[(6,7-dimethoxy-1,5-naphthyridin-4-yl)oxy]-3-fluorophenyl]-5-(4-fluorophenyl)-2-methoxy-1,6-dimethyl-4-oxopyridine-3-carboxamide], the pIC50 in assay [1] was > 7.00; in assay [2], > 7.00; in assay [3] it was > 7.00; in assay [4] it was 6.52 to 7.00.
As for `CNc1c(C(=O)Nc2ccc(Oc3ccnc4cc(OC)c(OC)nc34)c(F)c2)c(=O)c(-c2ccc(F)cc2)c(C)n1C` [Compound 649, N-[4-[(6,7-dimethoxy-1,5-naphthyridin-4-yl)oxy]-3-fluorophenyl]-5-(4-fluorophenyl)-1,6-dimethyl-2-(methylamino)-4-oxopyridine-3-carboxamide], the pIC50 in assay [1] was > 7.00; in assay [2] it was > 7.00; in assay [3] it was 6.52 to 7.00; in assay [4] it was < 6.52.
On to `COCCOc1nc2c(Oc3ccc(NC(=O)c4ccc(C)n(-c5ccc(F)cc5)c4=O)cc3F)ncnc2cc1OC` [Compound 650, N-[3-fluoro-4-[7-methoxy-6-(2-methoxyethoxy)pyrido[3,2-d]pyrimidin-4-yl]oxyphenyl]-1-(4-fluorophenyl)-6-methyl-2-oxopyridine-3-carboxamide], for which the negative logarithm of the IC50 (pIC50) in assay [1], in assay [2], in assay [3] and in assay [4] was > 7.00 throughout.
`COc1cnc2c(Oc3ccc(NC(=O)c4c(CO)nc(C)c(-c5ccc(F)cc5)c4O)cc3F)ccnc2c1` [Compound 651, N-[3-fluoro-4-[(7-methoxy-1,5-naphthyridin-4-yl)oxy]phenyl]-5-(4-fluorophenyl)-4-hydroxy-2-(hydroxymethyl)-6-methylpyridine-3-carboxamide]: the pIC50 in assay [1], in assay [2], in assay [3] and in assay [4] was > 7.00 in each case.
As for `COc1cc2nccc(Oc3ccc(NC(=O)c4c(CO)nc(C)c(-c5ccc(F)cc5)c4O)cc3F)c2nc1OC` [Compound 652, N-[4-[(6,7-dimethoxy-1,5-naphthyridin-4-yl)oxy]-3-fluorophenyl]-5-(4-fluorophenyl)-4-hydroxy-2-(hydroxymethyl)-6-methylpyridine-3-carboxamide], the pIC50 in assay [1], in assay [2], in assay [3] and in assay [4] was > 7.00 each time.
As to `COc1cc2nccc(Oc3ccc(NC(=O)c4c(C)[nH]nc(-c5ccc(F)cc5)c4=O)cc3F)c2nc1OC` [Compound 653, N-[4-[(6,7-dimethoxy-1,5-naphthyridin-4-yl)oxy]-3-fluorophenyl]-3-(4-fluorophenyl)-6-methyl-4-oxo-1H-pyridazine-5-carboxamide], the pIC50 in assay [1], in assay [2], in assay [3] and in assay [4] was > 7.00 each time.
Regarding `COc1cc2nccc(Oc3ccc(NC(=O)c4c(C)c(C(C)=O)cn(-c5ccc(F)cc5)c4=O)cc3F)c2nc1OC` [Compound 654, 5-acetyl-N-[4-[(6,7-dimethoxy-1,5-naphthyridin-4-yl)oxy]-3-fluorophenyl]-1-(4-fluorophenyl)-4-methyl-2-oxopyridine-3-carboxamide], the pIC50 in assay [1], in assay [2], in assay [3] and in assay [4] was > 7.00 in each case.
Regarding `COc1cc2nccc(Oc3ccc(NC(=O)c4c(C)n(C)nc(-c5ccc(F)cc5)c4=O)cc3F)c2nc1OC` [Compound 655, N-[4-[(6,7-dimethoxy-1,5-naphthyridin-4-yl)oxy]-3-fluorophenyl]-6-(4-fluorophenyl)-2,3-dimethyl-5-oxopyridazine-4-carboxamide], the negative-log IC50 (pIC50) in assay [1], in assay [2], in assay [3] and in assay [4] was > 7.00 in each case.
For the compound `COc1cnc2c(Oc3ccc(NC(=O)c4cc(C(C)=O)c(C)n(-c5ccc(F)cc5)c4=O)cc3F)ccnc2c1` [Compound 656, 5-acetyl-N-[3-fluoro-4-[(7-methoxy-1,5-naphthyridin-4-yl)oxy]phenyl]-1-(4-fluorophenyl)-6-methyl-2-oxopyridine-3-carboxamide], the negative-log IC50 (pIC50) is > 7.00 in assay [1], > 7.00 in assay [2], > 7.00 in assay [3] and < 6.52 in assay [4].
As to `COc1cc2nccc(Oc3ccc(NC(=O)c4c(C)nnc(-c5ccc(F)cc5)c4OC)cc3F)c2nc1OC` [Compound 657, N-[4-[(6,7-dimethoxy-1,5-naphthyridin-4-yl)oxy]-3-fluorophenyl]-6-(4-fluorophenyl)-5-methoxy-3-methylpyridazine-4-carboxamide], the pIC50 in assay [1], in assay [2], in assay [3] and in assay [4] was > 7.00 throughout.
`COc1cnc2c(Oc3ccc(NC(=O)c4cnc(C5CC5)c(-c5ccc(F)cc5)c4O)cc3F)ccnc2c1` [Compound 658, 6-cyclopropyl-N-[3-fluoro-4-[(7-methoxy-1,5-naphthyridin-4-yl)oxy]phenyl]-5-(4-fluorophenyl)-4-hydroxypyridine-3-carboxamide]: the negative logarithm of the IC50 (pIC50) is > 7.00 in assay [1], > 7.00 in assay [2], > 7.00 in assay [3] and < 6.52 in assay [4].
As to `COc1cc2nccc(Oc3ccc(NC(=O)c4cc(C(C)=O)c(C)n(-c5ccc(F)cc5)c4=O)cc3)c2nc1OC` [Compound 659, 5-acetyl-N-[4-[(6,7-dimethoxy-1,5-naphthyridin-4-yl)oxy]phenyl]-1-(4-fluorophenyl)-6-methyl-2-oxopyridine-3-carboxamide], the negative logarithm of the IC50 (pIC50) in assay [1] is > 7.00; in assay [2], > 7.00; in assay [3], > 7.00; in assay [4], < 6.52.
Turning to `COc1cc2nccc(Oc3ccc(NC(=O)c4cn5c(c(-c6ccc(F)cc6)c4=O)COCC5)cc3)c2nc1OC` [Compound 660, N-[4-[(6,7-dimethoxy-1,5-naphthyridin-4-yl)oxy]phenyl]-9-(4-fluorophenyl)-8-oxo-3,4-dihydro-1H-pyrido[2,1-c][1,4]oxazine-7-carboxamide], the pIC50 is > 7.00 in assay [1], > 7.00 in assay [2], > 7.00 in assay [3] and 6.52 to 7.00 in assay [4].
